Measured values published in the supplement of paper PMC10307832.

Key:
Test in all cases: relative viability (nuclei count vs DMSO), 5 days (fraction); higher = more cells survive
[1] = compound: COc1cc([C@@H]2c3cc4c(cc3[C@@H](O[C@@H]3O[C@@H]5CO[C@@H](C)O[C@H]5[C@H](O)[C@H]3O)[C@H]3COC(=O)[C@H]23)OCO4)cc(OC)c1O [Etoposide] + O=C(c1cc(Cc2n[nH]c(=O)c3ccccc23)ccc1F)N1CCN(C(=O)C2CC2)CC1 [Olaparib] (partner 8 µM)
Outline: (§1)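 Relative viability divides the nuclei count in treated wells by that in vehicle wells. Lung cancer cell lines were seeded in 1536-well plates, dosed by pin tool the next day, and fixed and stained after 5 days in one step with final 0.05% Triton X-100, 1% formaldehyde and 1 ug/ml Hoechst. Dosing was a single drug or a fixed anchor-drug dose plus five library-drug doses (not always all listed) in √10 steps, and values are medians of duplicate plates imaged at 4×.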

[2] = compound: CC1=C(N=C(N=C1N)[C@H](CC(=O)N)NC[C@@H](C(=O)N)N)C(=O)N[C@@H]([C@H](C2=CN=CN2)OC3C(C(C(C(O3)CO)O)O)OC4C(C(C(C(O4)CO)O)OC(=O)N)O)C(=O)N[C@H](C)[C@H]([C@H](C)C(=O)N[C@@H]([C@@H](C)O)C(=O)NCCC5=NC(=CS5)C6=NC(=CS6)C(=O)NCCC[S+](C)C)O [Bleomycin] + CCNC(=O)c1noc(-c2cc(C(C)C)c(O)cc2O)c1-c1ccc(CN2CCOCC2)cc1 [Luminespib] (partner 0.01 µM); conditions: main component drawn
Outline: as §1

[3] = compound: CC1=C(N=C(N=C1N)[C@H](CC(=O)N)NC[C@@H](C(=O)N)N)C(=O)N[C@@H]([C@H](C2=CN=CN2)OC3C(C(C(C(O3)CO)O)O)OC4C(C(C(C(O4)CO)O)OC(=O)N)O)C(=O)N[C@H](C)[C@H]([C@H](C)C(=O)N[C@@H]([C@@H](C)O)C(=O)NCCC5=NC(=CS5)C6=NC(=CS6)C(=O)NCCC[S+](C)C)O [Bleomycin] + CC(=O)Nc1cccc(-n2c(=O)n(C3CC3)c(=O)c3c(Nc4ccc(I)cc4F)n(C)c(=O)c(C)c32)c1 [Trametinib] (partner 0.02 µM); conditions: main component drawn
Outline: as §1

[4] = compound: COc1cc([C@@H]2c3cc4c(cc3[C@@H](O[C@@H]3O[C@@H]5CO[C@@H](C)O[C@H]5[C@H](O)[C@H]3O)[C@H]3COC(=O)[C@H]23)OCO4)cc(OC)c1O [Etoposide] + CS(=O)(=O)N1CCN(Cc2cc3nc(-c4cccc5[nH]ncc45)nc(N4CCOCC4)c3s2)CC1 [Pictilisib] (partner 1 µM)
Outline: as §1

Row | Cell Line | relative viability ([1]; first compound 0.01 µM) | relative viability ([1]; first compound 0.03162 µM) | relative viability ([1]; first compound 0.1 µM) | relative viability ([1]; first compound 0.3162 µM) | relative viability ([1]; first compound 1 µM) | relative viability ([2]; first compound 0.01 µM) | relative viability ([2]; first compound 0.03162 µM) | relative viability ([2]; first compound 0.1 µM) | relative viability ([2]; first compound 0.3162 µM) | relative viability ([2]; first compound 1 µM) | relative viability ([3]; first compound 0.01 µM) | relative viability ([3]; first compound 0.03162 µM) | relative viability ([3]; first compound 0.1 µM) | relative viability ([3]; first compound 0.3162 µM) | relative viability ([3]; first compound 1 µM) | relative viability ([4]; first compound 0.01 µM) | relative viability ([4]; first compound 0.03162 µM) | relative viability ([4]; first compound 0.1 µM) | relative viability ([4]; first compound 0.3162 µM) | relative viability ([4]; first compound 1 µM)
1 | NCI-H2405 | 0.851 | 0.819 | 0.701 | 0.562 | 0.293 | 0.651 | 0.697 | 0.589 | 0.347 | 0.358 | 0.537 | 0.529 | 0.578 | 0.444 | 0.313 | 0.455 | 0.508 | 0.268 | 0.399 | 0.315
2 | NCI-H3122 | 0.456 | 0.587 | 0.634 | 0.297 | 0.21 | 0.103 | 0.145 | 0.101 | 0.111 | 0.0599 | 0.257 | 0.247 | 0.231 | 0.185 | 0.187 | 0.687 | 0.74 | 0.387 | 0.576 | 0.349
3 | PC-3 [JPC-3] | 0.992 | 0.928 | 1.14 | 1.07 | 0.794 | 0.685 | 0.665 | 0.621 | 0.55 | 0.418 | 0.68 | 0.722 | 0.617 | 0.449 | 0.433 | 0.689 | 0.819 | 0.576 | 0.785 | 0.497
4 | PC-14 | 0.239 | 0.204 | 0.31 | 0.135 | 0.123 | 0.148 | 0.144 | 0.121 | 0.116 | 0.124 | 0.243 | 0.205 | 0.133 | 0.0541 | 0.0419 | 0.598 | 0.638 | 0.543 | 0.371 | 0.289
5 | RERF-LC-KJ | 0.827 | 0.877 | 0.861 | 0.633 | 0.417 | 0.555 | 0.479 | 0.461 | 0.307 | 0.287 | 0.678 | 0.563 | 0.492 | 0.272 | 0.229 | 0.533 | 0.586 | 0.459 | 0.529 | 0.365
6 | SK-LU-1 | 0.407 | 0.511 | 0.348 | 0.238 | 0.193 | 0.197 | 0.202 | 0.272 | 0.216 | 0.191 | 0.415 | 0.487 | 0.464 | 0.43 | 0.392 | 0.603 | 0.597 | 0.308 | 0.277 | 0.174
7 | SK-MES-1 | 0.697 | 0.785 | 0.56 | 0.257 | 0.19 | 0.701 | 0.641 | 0.641 | 0.244 | 0.202 | 0.501 | 0.532 | 0.527 | 0.28 | 0.219 | 0.361 | 0.336 | 0.301 | 0.242 | 0.167
8 | SW 1573 | 0.45 | 0.397 | 0.395 | 0.16 | 0.0987 | 0.508 | 0.616 | 0.118 | 0.174 | 0.116 | 0.47 | 0.424 | 0.322 | 0.191 | 0.141 | 0.451 | 0.475 | 0.338 | 0.197 | 0.117
